Reference: ChEMBL document CHEMBL5291721, “A preclinical secondary pharmacology resource illuminates target-adverse drug reaction associations of marketed drugs” (Nat Commun, 2023)

How the values were obtained:
Prothrombin = Prothrombin (Homo sapiens, UniProt P00734); format: functional
[1] = target: Gamma-aminobutyric acid receptor subunit alpha-1 (Rattus norvegicus, UniProt P62813)
D(3) dopamine receptor = D(3) dopamine receptor (Homo sapiens, UniProt P35462)
[2] = target: T1, Neuropeptide Y receptor type 1 (Homo sapiens, UniProt P25929)
T1 sequence (P25929 whole entry): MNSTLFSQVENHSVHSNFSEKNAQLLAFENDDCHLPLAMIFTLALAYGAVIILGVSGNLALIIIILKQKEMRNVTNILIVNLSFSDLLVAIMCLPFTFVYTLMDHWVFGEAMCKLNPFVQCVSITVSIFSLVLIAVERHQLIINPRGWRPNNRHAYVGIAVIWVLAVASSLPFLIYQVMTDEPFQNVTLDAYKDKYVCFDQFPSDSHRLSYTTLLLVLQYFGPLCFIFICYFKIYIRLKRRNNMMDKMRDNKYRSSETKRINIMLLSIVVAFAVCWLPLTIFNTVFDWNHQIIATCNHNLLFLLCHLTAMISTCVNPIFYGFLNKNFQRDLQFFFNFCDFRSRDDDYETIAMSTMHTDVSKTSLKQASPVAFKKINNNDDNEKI

B2 bradykinin receptor = target: T2, B2 bradykinin receptor (Homo sapiens, UniProt P30411)
T2 sequence (P30411 whole entry): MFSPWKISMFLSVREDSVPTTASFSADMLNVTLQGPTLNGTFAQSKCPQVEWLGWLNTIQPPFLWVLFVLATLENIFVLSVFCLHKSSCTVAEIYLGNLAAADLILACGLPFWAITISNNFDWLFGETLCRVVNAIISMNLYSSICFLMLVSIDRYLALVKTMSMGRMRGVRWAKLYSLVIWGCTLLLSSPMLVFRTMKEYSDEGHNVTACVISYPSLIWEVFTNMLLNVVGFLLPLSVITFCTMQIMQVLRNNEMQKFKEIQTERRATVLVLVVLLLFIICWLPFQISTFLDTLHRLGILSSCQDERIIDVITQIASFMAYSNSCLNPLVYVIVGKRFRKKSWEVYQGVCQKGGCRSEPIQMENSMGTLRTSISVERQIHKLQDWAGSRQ

[3] = target: T3, Muscarinic acetylcholine receptor M2 (Homo sapiens, UniProt P08172); format: functional, cell-based
T3 sequence (P08172 whole entry): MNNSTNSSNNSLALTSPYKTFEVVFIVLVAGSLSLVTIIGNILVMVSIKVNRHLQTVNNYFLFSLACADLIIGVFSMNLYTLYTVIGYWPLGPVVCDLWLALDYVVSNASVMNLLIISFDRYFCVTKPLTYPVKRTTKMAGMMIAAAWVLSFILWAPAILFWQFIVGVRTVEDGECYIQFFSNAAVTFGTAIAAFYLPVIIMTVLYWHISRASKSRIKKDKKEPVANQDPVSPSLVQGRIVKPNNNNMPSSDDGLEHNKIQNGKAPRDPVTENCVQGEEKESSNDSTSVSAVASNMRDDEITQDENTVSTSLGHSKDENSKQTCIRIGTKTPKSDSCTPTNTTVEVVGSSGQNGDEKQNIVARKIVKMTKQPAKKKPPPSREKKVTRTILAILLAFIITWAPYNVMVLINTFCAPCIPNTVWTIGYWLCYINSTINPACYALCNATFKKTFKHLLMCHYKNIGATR

[4] = target: T4, Alpha-1A adrenergic receptor (Homo sapiens, UniProt P35348); format: functional, cell-based
T4 sequence (P35348 whole entry): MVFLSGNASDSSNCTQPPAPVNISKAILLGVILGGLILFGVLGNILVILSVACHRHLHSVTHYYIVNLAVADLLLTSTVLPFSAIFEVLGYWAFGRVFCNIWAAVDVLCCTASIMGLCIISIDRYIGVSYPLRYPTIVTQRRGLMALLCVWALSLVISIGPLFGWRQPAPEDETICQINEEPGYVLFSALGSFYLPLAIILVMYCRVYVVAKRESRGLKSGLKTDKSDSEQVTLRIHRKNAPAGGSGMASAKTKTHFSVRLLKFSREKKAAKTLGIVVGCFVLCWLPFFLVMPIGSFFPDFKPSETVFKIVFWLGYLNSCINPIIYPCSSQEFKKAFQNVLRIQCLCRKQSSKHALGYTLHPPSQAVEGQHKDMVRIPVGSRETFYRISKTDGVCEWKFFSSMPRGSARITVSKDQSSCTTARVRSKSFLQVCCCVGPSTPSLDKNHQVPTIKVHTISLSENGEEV

[5] = target: T5, Amine oxidase [flavin-containing] A (Homo sapiens, UniProt P21397); format: functional
T5 sequence (P21397 whole entry): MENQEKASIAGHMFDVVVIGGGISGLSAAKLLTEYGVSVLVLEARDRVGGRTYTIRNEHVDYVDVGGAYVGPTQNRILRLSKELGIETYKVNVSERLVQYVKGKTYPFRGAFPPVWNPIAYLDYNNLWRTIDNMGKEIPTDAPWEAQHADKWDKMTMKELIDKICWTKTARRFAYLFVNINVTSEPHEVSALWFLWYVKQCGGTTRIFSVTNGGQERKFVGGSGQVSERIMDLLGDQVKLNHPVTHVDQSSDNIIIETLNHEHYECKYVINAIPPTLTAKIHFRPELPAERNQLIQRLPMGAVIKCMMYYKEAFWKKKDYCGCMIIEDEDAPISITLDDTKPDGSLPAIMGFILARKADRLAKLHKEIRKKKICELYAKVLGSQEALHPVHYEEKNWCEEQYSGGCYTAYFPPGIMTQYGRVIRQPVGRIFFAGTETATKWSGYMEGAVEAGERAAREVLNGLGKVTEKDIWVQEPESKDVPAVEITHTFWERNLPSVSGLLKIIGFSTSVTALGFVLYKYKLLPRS

Cannabinoid receptor 1 [6] = target: T6, Cannabinoid receptor 1 (Homo sapiens, UniProt P21554)
T6 sequence (P21554 whole entry): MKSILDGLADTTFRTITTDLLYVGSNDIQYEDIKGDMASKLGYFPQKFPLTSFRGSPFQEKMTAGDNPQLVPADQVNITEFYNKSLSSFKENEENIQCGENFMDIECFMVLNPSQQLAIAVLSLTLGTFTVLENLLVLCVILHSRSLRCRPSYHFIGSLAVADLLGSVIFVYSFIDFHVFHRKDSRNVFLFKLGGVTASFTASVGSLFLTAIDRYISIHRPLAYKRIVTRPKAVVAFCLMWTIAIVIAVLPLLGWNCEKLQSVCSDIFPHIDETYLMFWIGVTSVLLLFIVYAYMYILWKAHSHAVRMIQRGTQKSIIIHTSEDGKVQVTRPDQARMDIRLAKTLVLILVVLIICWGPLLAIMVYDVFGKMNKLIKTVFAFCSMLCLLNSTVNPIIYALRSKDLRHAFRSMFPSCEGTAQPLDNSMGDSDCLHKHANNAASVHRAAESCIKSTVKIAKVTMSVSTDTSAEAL

[7] = target: cGMP-inhibited 3',5'-cyclic phosphodiesterase 3A (Homo sapiens, UniProt Q14432); format: functional
cGMP-inhibited 3',5'-cyclic phosphodiesterase 3A, sequence (Q14432 whole entry): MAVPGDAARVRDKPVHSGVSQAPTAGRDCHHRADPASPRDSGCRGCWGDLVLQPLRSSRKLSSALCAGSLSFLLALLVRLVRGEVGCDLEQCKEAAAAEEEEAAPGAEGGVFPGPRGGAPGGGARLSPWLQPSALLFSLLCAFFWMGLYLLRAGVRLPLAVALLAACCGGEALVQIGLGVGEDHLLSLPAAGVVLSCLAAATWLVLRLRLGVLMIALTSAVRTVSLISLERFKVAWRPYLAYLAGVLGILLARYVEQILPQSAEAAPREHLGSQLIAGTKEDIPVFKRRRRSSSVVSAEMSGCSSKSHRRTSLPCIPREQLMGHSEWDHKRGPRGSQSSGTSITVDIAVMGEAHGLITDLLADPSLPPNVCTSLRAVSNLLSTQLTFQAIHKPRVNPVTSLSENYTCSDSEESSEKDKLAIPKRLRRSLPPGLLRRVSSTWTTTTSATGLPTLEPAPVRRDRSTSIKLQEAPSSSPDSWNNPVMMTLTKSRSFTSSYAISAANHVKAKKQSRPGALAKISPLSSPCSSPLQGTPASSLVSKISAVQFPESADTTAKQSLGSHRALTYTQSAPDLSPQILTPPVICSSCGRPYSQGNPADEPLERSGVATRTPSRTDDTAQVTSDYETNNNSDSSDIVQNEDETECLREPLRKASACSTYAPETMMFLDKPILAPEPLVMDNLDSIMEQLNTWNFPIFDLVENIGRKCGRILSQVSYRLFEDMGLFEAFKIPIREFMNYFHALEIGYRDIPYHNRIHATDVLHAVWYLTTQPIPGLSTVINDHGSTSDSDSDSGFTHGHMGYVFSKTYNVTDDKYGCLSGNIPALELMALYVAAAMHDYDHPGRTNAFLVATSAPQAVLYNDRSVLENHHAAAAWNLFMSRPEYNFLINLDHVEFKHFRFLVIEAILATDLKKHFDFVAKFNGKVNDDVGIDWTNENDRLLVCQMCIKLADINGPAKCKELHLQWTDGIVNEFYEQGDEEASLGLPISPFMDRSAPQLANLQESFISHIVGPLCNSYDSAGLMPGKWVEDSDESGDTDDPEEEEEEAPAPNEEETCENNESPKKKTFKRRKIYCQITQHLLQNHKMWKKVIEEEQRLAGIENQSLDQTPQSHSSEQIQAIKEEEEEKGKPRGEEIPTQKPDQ

[8] = target: T4, Alpha-1A adrenergic receptor
Cannabinoid receptor 1 [9] = target: T6, Cannabinoid receptor 1; format: functional, cell-based
D(1A) dopamine receptor = D(1A) dopamine receptor (Homo sapiens, UniProt P21728)
D(1A) dopamine receptor, sequence (P21728 whole entry): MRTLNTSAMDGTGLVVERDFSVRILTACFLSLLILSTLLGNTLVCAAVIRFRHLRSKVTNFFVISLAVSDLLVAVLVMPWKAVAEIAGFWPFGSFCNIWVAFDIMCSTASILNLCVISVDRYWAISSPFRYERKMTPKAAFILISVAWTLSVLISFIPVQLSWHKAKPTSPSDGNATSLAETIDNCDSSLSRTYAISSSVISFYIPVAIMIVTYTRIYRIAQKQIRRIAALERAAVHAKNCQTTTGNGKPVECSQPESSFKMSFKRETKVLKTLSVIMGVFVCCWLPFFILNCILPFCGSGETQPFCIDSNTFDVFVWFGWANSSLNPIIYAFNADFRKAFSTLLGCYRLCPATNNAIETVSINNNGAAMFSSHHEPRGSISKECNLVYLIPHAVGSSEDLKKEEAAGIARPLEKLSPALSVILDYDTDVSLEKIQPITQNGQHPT

[10] = target: Prostaglandin G/H synthase 1 (Homo sapiens, UniProt P23219); format: functional
Prostaglandin G/H synthase 1, sequence (P23219 whole entry): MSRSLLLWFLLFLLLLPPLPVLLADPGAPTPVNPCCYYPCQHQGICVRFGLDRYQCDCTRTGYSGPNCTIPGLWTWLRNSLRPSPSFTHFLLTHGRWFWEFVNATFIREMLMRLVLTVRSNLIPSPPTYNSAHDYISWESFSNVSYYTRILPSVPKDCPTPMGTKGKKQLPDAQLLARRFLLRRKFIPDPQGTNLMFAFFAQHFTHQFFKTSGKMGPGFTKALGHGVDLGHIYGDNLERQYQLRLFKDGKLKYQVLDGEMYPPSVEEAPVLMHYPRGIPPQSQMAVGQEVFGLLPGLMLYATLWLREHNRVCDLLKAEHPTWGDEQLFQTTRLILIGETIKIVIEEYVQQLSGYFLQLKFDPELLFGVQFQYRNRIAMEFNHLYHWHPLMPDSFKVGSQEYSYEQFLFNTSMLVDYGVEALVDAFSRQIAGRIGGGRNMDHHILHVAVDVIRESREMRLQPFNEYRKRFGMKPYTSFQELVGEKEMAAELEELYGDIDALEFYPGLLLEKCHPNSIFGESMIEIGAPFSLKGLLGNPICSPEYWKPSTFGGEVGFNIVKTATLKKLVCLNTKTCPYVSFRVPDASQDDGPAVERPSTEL

[11] = target: Sodium-dependent serotonin transporter (Homo sapiens, UniProt P31645)
Sodium-dependent serotonin transporter, sequence (P31645 whole entry): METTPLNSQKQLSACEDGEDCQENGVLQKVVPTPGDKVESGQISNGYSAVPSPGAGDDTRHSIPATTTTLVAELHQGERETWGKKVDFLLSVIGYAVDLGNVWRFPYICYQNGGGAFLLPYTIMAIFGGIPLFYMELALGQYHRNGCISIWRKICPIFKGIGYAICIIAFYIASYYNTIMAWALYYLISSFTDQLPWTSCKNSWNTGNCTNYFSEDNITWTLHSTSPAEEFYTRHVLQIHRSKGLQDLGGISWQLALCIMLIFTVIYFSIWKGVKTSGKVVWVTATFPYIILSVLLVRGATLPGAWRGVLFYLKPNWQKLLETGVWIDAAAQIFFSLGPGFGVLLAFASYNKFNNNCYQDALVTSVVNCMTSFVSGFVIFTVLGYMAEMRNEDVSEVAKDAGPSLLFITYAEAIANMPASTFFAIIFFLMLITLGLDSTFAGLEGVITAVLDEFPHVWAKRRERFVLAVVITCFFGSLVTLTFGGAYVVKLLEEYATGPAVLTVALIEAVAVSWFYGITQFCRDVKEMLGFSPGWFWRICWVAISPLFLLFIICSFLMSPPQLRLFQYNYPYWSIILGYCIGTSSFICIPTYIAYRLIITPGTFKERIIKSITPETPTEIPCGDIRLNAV
Note: assay procedure not described here.

Gamma-aminobutyric acid receptor subunit alpha-1, sequence (P62813 whole entry): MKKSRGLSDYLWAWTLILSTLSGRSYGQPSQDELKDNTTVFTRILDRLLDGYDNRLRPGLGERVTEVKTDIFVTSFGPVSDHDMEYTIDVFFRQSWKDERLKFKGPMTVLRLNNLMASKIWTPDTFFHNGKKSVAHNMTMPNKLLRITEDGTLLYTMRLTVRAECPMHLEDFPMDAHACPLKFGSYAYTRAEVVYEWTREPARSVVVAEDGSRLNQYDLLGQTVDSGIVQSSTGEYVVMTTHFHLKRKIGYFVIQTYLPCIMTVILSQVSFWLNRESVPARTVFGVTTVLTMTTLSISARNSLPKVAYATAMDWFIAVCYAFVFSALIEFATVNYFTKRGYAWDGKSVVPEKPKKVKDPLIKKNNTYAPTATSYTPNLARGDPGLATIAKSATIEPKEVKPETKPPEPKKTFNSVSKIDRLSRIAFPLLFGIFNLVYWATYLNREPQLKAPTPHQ
D(3) dopamine receptor, sequence (P35462 whole entry): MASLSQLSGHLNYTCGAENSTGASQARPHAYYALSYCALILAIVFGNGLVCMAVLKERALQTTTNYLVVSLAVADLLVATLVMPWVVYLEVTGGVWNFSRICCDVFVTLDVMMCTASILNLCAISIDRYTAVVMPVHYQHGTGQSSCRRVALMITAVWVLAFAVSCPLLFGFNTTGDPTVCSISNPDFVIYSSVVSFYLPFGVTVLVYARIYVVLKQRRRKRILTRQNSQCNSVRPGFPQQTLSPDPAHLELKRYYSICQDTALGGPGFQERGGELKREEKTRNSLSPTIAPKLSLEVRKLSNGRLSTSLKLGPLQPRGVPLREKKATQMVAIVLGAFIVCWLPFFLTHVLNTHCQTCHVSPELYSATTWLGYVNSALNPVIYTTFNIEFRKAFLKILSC

SMILES	AC50 (Prothrombin) [µM]	AC50 [1] [µM]	AC50 (D(3) dopamine receptor) [µM]	AC50 [2] [µM]	AC50 (B2 bradykinin receptor) [µM]	AC50 [3] [µM]	AC50 [4] [µM]	AC50 [5] [µM]	AC50 (Cannabinoid receptor 1 [6]) [µM]	AC50 [7] [µM]	AC50 [8] [µM]	AC50 (Cannabinoid receptor 1 [9]) [µM]	AC50 (D(1A) dopamine receptor) [µM]	AC50 [10] [µM]	AC50 [11] [µM]
Nc1nc(N)c2nc(-c3ccccc3)c(N)nc2n1	> 3	> 30	> 30	> 30	> 30	> 30	> 30	> 30	> 30	> 30	> 10	> 30	> 30	> 30	–
C[C@@H]1O[C@@H]1P(=O)(O)O [FOSFOMYCIN]	–	> 10	–	> 10	> 10	> 10	–	–	> 10	–	> 10	–	–	–	> 10
COC(=O)[C@@H]1CC2=CC(=O)CC[C@]2(C)[C@@]23O[C@@H]2C[C@@]2(C)[C@@H](CC[C@@]24CCC(=O)O4)[C@H]13 [EPLERENONE]	–	> 10	–	> 30	> 30	> 30	–	–	> 10	–	> 10	> 30	–	–	> 30
CC(C)NCC(O)COc1ccc(COCCOC(C)C)cc1 (stereo unspecified) [BISOPROLOL]	–	> 10	–	> 30	> 30	> 10	–	–	> 10	–	> 10	–	–	–	> 10
CN(CCOc1ccc(NS(C)(=O)=O)cc1)CCc1ccc(NS(C)(=O)=O)cc1 [DOFETILIDE]	> 30	> 10	3.36	> 30	> 30	> 30	> 30	> 30	> 10	> 30	> 10	> 30	> 30	> 30	> 10
CO/N=C(\C(=O)N[C@@H]1C(=O)N2C(C(=O)[O-])=C(C[N+]3(C)CCCC3)CS[C@H]12)c1csc(N)n1	–	> 30	–	> 30	> 30	> 300	–	–	> 30	–	> 30	> 300	–	–	> 300
O=C(CCCCCCC(=O)Nc1ccccc1)NO [VORINOSTAT]	–	> 10	–	> 30	> 30	> 30	–	–	> 10	–	> 10	> 30	–	–	> 30
CC(C(=O)O)c1ccc(N2CC=CC2)c(Cl)c1 (stereo unspecified) [PIRPROFEN]	> 30	> 10	> 30	> 30	> 30	> 10	> 30	> 30	> 10	> 30	> 10	> 30	> 30	0.0325	> 10
C[C@H]1O[C@H](O[C@H]2[C@H](O)[C@@H](O)[C@@H](O[C@H]3[C@H](O)[C@@H](O)C(O)O[C@@H]3CO)O[C@@H]2CO)[C@H](O)[C@@H](O)[C@@H]1N[C@H]1C=C(CO)[C@@H](O)[C@H](O)[C@H]1O (stereo partly specified) [ACARBOSE]	> 30	–	> 30	> 30	> 30	> 10	> 30	> 30	> 10	17.6	> 10	> 30	> 30	> 30	–
COC(=O)N[C@H](C(=O)N[C@@H](Cc1ccccc1)[C@@H](O)CN(Cc1ccc(-c2ccccn2)cc1)NC(=O)[C@@H](NC(=O)OC)C(C)(C)C)C(C)(C)C [ATAZANAVIR]	–	> 10	–	> 30	> 30	> 10	–	–	> 10	–	> 10	–	–	–	> 30
Oc1ncnc2[nH]ncc12 [ALLOPURINOL]	> 30	> 10	> 30	> 30	> 30	> 10	> 30	> 30	> 10	> 30	2.88	> 30	> 30	> 30	–
NC(=O)c1cnccn1 [PYRAZINAMIDE]	> 30	> 30	> 30	> 30	> 30	> 30	> 30	> 30	> 30	> 30	> 10	> 30	> 30	> 30	–
Cc1ccc(C(=O)c2cc(O)c(O)c([N+](=O)[O-])c2)cc1 [TOLCAPONE]	–	> 10	–	> 10	> 10	> 10	–	–	> 10	–	14.6	–	–	–	> 30
CC(C(=O)O)c1ccc(C(=O)c2cccs2)cc1 (stereo unspecified) [SUPROFEN]	–	> 10	–	> 10	> 10	> 10	–	–	> 10	–	> 10	–	–	–	> 10
CN1C(=O)CC(C)(c2ccccc2)C1=O (stereo unspecified) [METHSUXIMIDE]	–	> 10	–	> 10	> 10	> 10	–	–	> 10	–	> 30	–	–	–	> 10
